Laboratory results from PMC5218480 (PLoS ONE, 2017).

Test system: MV-4-11 cells
Assay: Gene expression microarray analysis (Affymetrix PrimeView) and GSEA
Format: cell-based, human
Parameters: RFU PODN (11730768_x_at) / Fold change /veh PODN (11730768_x_at) / RFU LINC00158 (11744669_a_at) / Fold change /veh LINC00158 (11744669_a_at) / RFU DUSP10 (11751237_a_at) / Fold change /veh DUSP10 (11751237_a_at) / RFU ID3 (11757404_x_at) / Fold change /veh ID3 (11757404_x_at) / RFU PLEKHG5 (11737974_s_at) / Fold change /veh PLEKHG5 (11737974_s_at) / RFU LRRC4B (11730491_at) / Fold change /veh LRRC4B (11730491_at) / RFU GIMAP4 (11747438_a_at) / Fold change /veh GIMAP4 (11747438_a_at) / RFU KRT8 (11758183_x_at) / Fold change /veh KRT8 (11758183_x_at) / RFU CNN1 (11734310_a_at) / Fold change /veh CNN1 (11734310_a_at) / RFU VPS37D (11726825_at) / Fold change /veh VPS37D (11726825_at) / RFU C10orf10 (11716522_x_at) / Fold change /veh C10orf10 (11716522_x_at) / RFU KIR2DL2 /// KIR2DL4 /// KIR2DL5A /// KIR2DL5B /// KIR2DS1 /// KIR2DS2 /// KIR2DS3 /// KIR2DS4 /// KIR3DL3 /// KIR3DL3 /// KIR3DS1 (11738374_at) / Fold change /veh KIR2DL2 /// KIR2DL4 /// KIR2DL5A /// KIR2DL5B /// KIR2DS1 /// KIR2DS2 /// KIR2DS3 /// KIR2DS4 /// KIR3DL3 /// KIR3DL3 /// KIR3DS1 (11738374_at) / RFU C1QL1 (11718748_at) / Fold change /veh C1QL1 (11718748_at) / RFU TMPRSS4 (11747572_a_at) / Fold change /veh TMPRSS4 (11747572_a_at) / RFU HAMP (11756126_x_at) / Fold change /veh HAMP (11756126_x_at) / RFU RNFT2 (11725882_a_at) / Fold change /veh RNFT2 (11725882_a_at) / RFU NR4A2 (11747474_a_at) / Fold change /veh NR4A2 (11747474_a_at) / RFU ABCC12 (11746883_a_at) / Fold change /veh ABCC12 (11746883_a_at) / RFU TMEM136 (11760407_x_at) / Fold change /veh TMEM136 (11760407_x_at) / RFU CLDN22 /// WWC2 (11732394_at) / Fold change /veh CLDN22 /// WWC2 (11732394_at) / RFU HLA-DPB1 (11760878_x_at) / Fold change /veh HLA-DPB1 (11760878_x_at) / RFU SPINT1 (11716480_a_at) / Fold change /veh SPINT1 (11716480_a_at) / RFU GAP43 (11754022_s_at) / Fold change /veh GAP43 (11754022_s_at) / RFU A4GNT (11735810_at) / Fold change /veh A4GNT (11735810_at) / RFU PRB3 (11715151_x_at) / Fold change /veh PRB3 (11715151_x_at) / RFU TUBB4B (11761932_at) / Fold change /veh TUBB4B (11761932_at) / RFU CAPN14 (11732068_a_at) / Fold change /veh CAPN14 (11732068_a_at) / RFU TMCC2 (11721928_a_at) / Fold change /veh TMCC2 (11721928_a_at) / RFU IRGQ (11745062_a_at) / Fold change /veh IRGQ (11745062_a_at) / RFU FAM174B (11720279_a_at) / Fold change /veh FAM174B (11720279_a_at) / RFU TMPRSS4 (11748680_a_at) / Fold change /veh TMPRSS4 (11748680_a_at) / RFU FAM212B (11763350_a_at) / Fold change /veh FAM212B (11763350_a_at) / RFU PLEKHG5 (11743358_a_at) / Fold change /veh PLEKHG5 (11743358_a_at) / RFU ZSCAN30 (11745921_a_at) / Fold change /veh ZSCAN30 (11745921_a_at) / RFU CMKLR1 (11741424_a_at) / Fold change /veh CMKLR1 (11741424_a_at) / RFU LOC101060620 /// MAPK8IP1 (11723275_at) / Fold change /veh LOC101060620 /// MAPK8IP1 (11723275_at) / RFU SPTSSB (11747773_x_at) / Fold change /veh SPTSSB (11747773_x_at) / RFU PRSS12 (11739890_at) / Fold change /veh PRSS12 (11739890_at) / RFU BIN1 (11741810_x_at) / Fold change /veh BIN1 (11741810_x_at) / RFU WNT11 (11732464_a_at) / Fold change /veh WNT11 (11732464_a_at) / RFU C10orf10 (11716521_a_at) / Fold change /veh C10orf10 (11716521_a_at) / RFU C5orf56 (11738089_at) / Fold change /veh C5orf56 (11738089_at) / RFU CYB561 (11721691_x_at) / Fold change /veh CYB561 (11721691_x_at) / RFU ANKRD19P (11752326_a_at) / Fold change /veh ANKRD19P (11752326_a_at) / RFU OR2T12 /// OR2T33 /// OR2T8 (11738714_s_at) / Fold change /veh OR2T12 /// OR2T33 /// OR2T8 (11738714_s_at) / RFU VCAN (11748164_a_at) / Fold change /veh VCAN (11748164_a_at) / RFU JSRP1 (11732532_at) / Fold change /veh JSRP1 (11732532_at) / RFU KRTAP10-11 (11738290_x_at) / Fold change /veh KRTAP10-11 (11738290_x_at) / RFU MYO3A (11730013_a_at) / Fold change /veh MYO3A (11730013_a_at) / RFU EBF3 (11725865_a_at) / Fold change /veh EBF3 (11725865_a_at) / RFU CAMK2N1 (11719241_x_at) / Fold change /veh CAMK2N1 (11719241_x_at) / RFU C5orf56 (11738088_a_at) / Fold change /veh C5orf56 (11738088_a_at) / RFU OLFML3 (11715873_a_at) / Fold change /veh OLFML3 (11715873_a_at) / RFU LOC100653217 /// NTM (11731650_a_at) / Fold change /veh LOC100653217 /// NTM (11731650_a_at) / RFU MAPK11 (11762145_a_at) / Fold change /veh MAPK11 (11762145_a_at) / RFU FIZ1 (11724087_x_at) / Fold change /veh FIZ1 (11724087_x_at) / RFU OASL (11726364_x_at) / Fold change /veh OASL (11726364_x_at) / RFU SOX15 (11748057_x_at) / Fold change /veh SOX15 (11748057_x_at) / RFU CD79A (11719716_a_at) / Fold change /veh CD79A (11719716_a_at) / RFU HIST1H1D (11736915_at) / Fold change /veh HIST1H1D (11736915_at) / RFU CASKIN2 (11723855_a_at) / Fold change /veh CASKIN2 (11723855_a_at) / RFU LOC730098 (11760151_x_at) / Fold change /veh LOC730098 (11760151_x_at) / RFU OR4N2 (11742367_at) / Fold change /veh OR4N2 (11742367_at) / RFU PRRT2 (11749266_a_at) / Fold change /veh PRRT2 (11749266_a_at) / RFU SNX32 (11753110_a_at) / Fold change /veh SNX32 (11753110_a_at) / RFU CDHR5 (11726645_a_at) / Fold change /veh CDHR5 (11726645_a_at) / RFU RCAN1 (11760418_a_at) / Fold change /veh RCAN1 (11760418_a_at) / RFU FAM167A (11723789_a_at) / Fold change /veh FAM167A (11723789_a_at) / RFU FAM26E (11764081_at) / Fold change /veh FAM26E (11764081_at) / RFU ISYNA1 (11749810_s_at) / Fold change /veh ISYNA1 (11749810_s_at) / RFU ACY1 (11761880_at) / Fold change /veh ACY1 (11761880_at) / RFU 11764098_at / Fold change /veh 11764098_at / RFU SAMD14 (11745864_x_at) / Fold change /veh SAMD14 (11745864_x_at) / RFU NPB (11741838_a_at) / Fold change /veh NPB (11741838_a_at) / RFU TMPRSS6 (11731388_a_at) / Fold change /veh TMPRSS6 (11731388_a_at) / RFU KRTAP10-2 (11738614_at) / Fold change /veh KRTAP10-2 (11738614_at) / RFU ARHGAP8 /// PRR5-ARHGAP8 (11727945_x_at) / Fold change /veh ARHGAP8 /// PRR5-ARHGAP8 (11727945_x_at) / RFU KRTAP5-7 /// NADSYN1 (11734609_at) / Fold change /veh KRTAP5-7 /// NADSYN1 (11734609_at) / RFU RASL12 (11751679_a_at) / Fold change /veh RASL12 (11751679_a_at) / RFU CDKN2B (11736163_a_at) / Fold change /veh CDKN2B (11736163_a_at) / RFU PRF1 (11729649_at) / Fold change /veh PRF1 (11729649_at) / RFU, ZNF638 /// ZNF638-IT1 / Fold change vs veh, ZNF638 /// ZNF638-IT1 / RFU, PANK3 / Fold change vs veh, PANK3 / RFU, SH3YL1 / Fold change vs veh, SH3YL1 / RFU, ZEB2 / Fold change vs veh, ZEB2 / RFU, NRIP1 / Fold change vs veh, NRIP1 / RFU, PTTG1IP / Fold change vs veh, PTTG1IP / RFU, CAPN2 / Fold change vs veh, CAPN2 / RFU, MED14 / Fold change vs veh, MED14 / RFU, SNORA58 / Fold change vs veh, SNORA58 / RFU, C1orf63 / Fold change vs veh, C1orf63 / RFU, LRRFIP1 / Fold change vs veh, LRRFIP1 / RFU, NDUFAF7 / Fold change vs veh, NDUFAF7 / RFU, SLC12A2 / Fold change vs veh, SLC12A2 / RFU, IBTK / Fold change vs veh, IBTK / RFU, ESF1 / Fold change vs veh, ESF1 / Fold change vs veh, TMEM50B / RFU, TAOK1 / Fold change vs veh, TAOK1 / RFU, ACBD3 / Fold change vs veh, ACBD3 / RFU, TMA16 / Fold change vs veh, TMA16 / RFU, RWDD3 / Fold change vs veh, RWDD3 / RFU, BCAT1 / Fold change vs veh, BCAT1 / RFU, EDEM3 / Fold change vs veh, EDEM3 / RFU, TMEM33 / Fold change vs veh, TMEM33 / RFU, WDR75 / Fold change vs veh, WDR75 / RFU, AHCTF1 / Fold change vs veh, AHCTF1 / RFU, TFRC / Fold change vs veh, TFRC / RFU, ZDHHC17 / Fold change vs veh, ZDHHC17 / RFU, NOM1 / Fold change vs veh, NOM1 / RFU, ARL8B / Fold change vs veh, ARL8B / RFU, ZBTB11 / Fold change vs veh, ZBTB11 / RFU, TAMM41 / Fold change vs veh, TAMM41 / RFU, KIAA1704 /// LOC100996395 / Fold change vs veh, KIAA1704 /// LOC100996395 / RFU, ING1 / Fold change vs veh, ING1 / RFU, TRMT61B / Fold change vs veh, TRMT61B / RFU, FUBP3 / Fold change vs veh, FUBP3 / RFU, TP53 / Fold change vs veh, TP53 / RFU, TNKS2 / Fold change vs veh, TNKS2 / RFU, ZFP14 / Fold change vs veh, ZFP14 / RFU, ACTR2 / Fold change vs veh, ACTR2 / RFU, PPP3R1 / Fold change vs veh, PPP3R1 / RFU, PIK3R1 / Fold change vs veh, PIK3R1 / RFU, HNRNPA1 / Fold change vs veh, HNRNPA1 / RFU, RNF170 / Fold change vs veh, RNF170 / RFU, ZNF28 / Fold change vs veh, ZNF28 / RFU, RNGTT / Fold change vs veh, RNGTT / RFU, OGT / Fold change vs veh, OGT / RFU, BRD1 / Fold change vs veh, BRD1 / RFU, MARS / Fold change vs veh, MARS / RFU, ZNF655 / Fold change vs veh, ZNF655 / RFU, FAHD1 / Fold change vs veh, FAHD1 / RFU, BDP1 / Fold change vs veh, BDP1 / RFU, LRRCC1 / Fold change vs veh, LRRCC1 / RFU, ARID1A / Fold change vs veh, ARID1A / RFU, ZNF146 / Fold change vs veh, ZNF146 / RFU, ZNF330 / Fold change vs veh, ZNF330 / RFU, GPN3 / Fold change vs veh, GPN3 / RFU, C9orf123 / Fold change vs veh, C9orf123 / RFU, N4BP2L2 / Fold change vs veh, N4BP2L2 / RFU, ARFIP1 / Fold change vs veh, ARFIP1 / RFU, FAM179B / Fold change vs veh, FAM179B / RFU, BCL10 / Fold change vs veh, BCL10 / RFU, UHRF1BP1L / Fold change vs veh, UHRF1BP1L / RFU, BET1 / Fold change vs veh, BET1 / RFU, CNOT2 / Fold change vs veh, CNOT2 / RFU, ZNF268 / Fold change vs veh, ZNF268 / Fold change vs veh, ZNF507 / RFU, DGCR2 / Fold change vs veh, DGCR2 / RFU, WDSUB1 / Fold change vs veh, WDSUB1 / Fold change vs veh, HSP90B1 /// MIR3652 / RFU, ADSS / Fold change vs veh, ADSS / RFU, GK / Fold change vs veh, GK / RFU, ZNF148 / Fold change vs veh, ZNF148 / RFU, TAF9 / Fold change vs veh, TAF9 / RFU, SLC1A5 / Fold change vs veh, SLC1A5 / RFU, SLMO2 / Fold change vs veh, SLMO2 / RFU, ABCC4 / Fold change vs veh, ABCC4 / RFU, LOC101060439 /// RAP1B / Fold change vs veh, LOC101060439 /// RAP1B / RFU, RFX7 / Fold change vs veh, RFX7 / RFU, GTPBP10 / Fold change vs veh, GTPBP10 / RFU, CNEP1R1 / Fold change vs veh, CNEP1R1 / RFU, BIVM-ERCC5 /// ERCC5 / Fold change vs veh, BIVM-ERCC5 /// ERCC5 / RFU, ILF3 / Fold change vs veh, ILF3 / RFU 11762660_at / Fold change /veh 11762660_at / RFU VCAN (11757783_s_at) / Fold change /veh VCAN (11757783_s_at) / RFU DDX43 (11728927_at) / Fold change /veh DDX43 (11728927_at) / RFU KRT8 (11758188_x_at) / Fold change /veh KRT8 (11758188_x_at) / RFU NKD1 (11759106_at) / Fold change /veh NKD1 (11759106_at) / RFU SRD5A1 (11742802_a_at) / Fold change /veh SRD5A1 (11742802_a_at) / RFU TPSAB1 /// TPSB2 (11721975_s_at) / Fold change /veh TPSAB1 /// TPSB2 (11721975_s_at) / RFU GSTM3 (11746129_a_at) / Fold change /veh GSTM3 (11746129_a_at) / RFU IL23R (11737362_x_at) / Fold change /veh IL23R (11737362_x_at) / RFU TMEM51 (11727254_a_at) / Fold change /veh TMEM51 (11727254_a_at) / RFU PIWIL2 (11732686_x_at) / Fold change /veh PIWIL2 (11732686_x_at) / RFU ORM1 (11744905_x_at) / Fold change /veh ORM1 (11744905_x_at) / RFU CCDC152 (11743942_at) / Fold change /veh CCDC152 (11743942_at) / RFU ECM1 (11717891_a_at) / Fold change /veh ECM1 (11717891_a_at) / RFU IL23R (11748794_a_at) / Fold change /veh IL23R (11748794_a_at) / RFU TNFAIP8L3 (11732012_x_at) / Fold change /veh TNFAIP8L3 (11732012_x_at) / RFU MBOAT4 (11741988_at) / Fold change /veh MBOAT4 (11741988_at) / RFU 11764193_at / Fold change /veh 11764193_at / RFU TMEM53 (11763286_at) / Fold change /veh TMEM53 (11763286_at) / RFU MAGEB2 (11727129_at) / Fold change /veh MAGEB2 (11727129_at) / RFU TMEM200A (11744735_a_at) / Fold change /veh TMEM200A (11744735_a_at) / RFU CCDC152 (11751479_a_at) / Fold change /veh CCDC152 (11751479_a_at) / RFU FAM211A (11726209_a_at) / Fold change /veh FAM211A (11726209_a_at) / RFU RGS16 (11746705_a_at) / Fold change /veh RGS16 (11746705_a_at) / RFU VCAN (11755009_s_at) / Fold change /veh VCAN (11755009_s_at) / RFU RHOB (11743442_s_at) / Fold change /veh RHOB (11743442_s_at) / RFU RGS16 (11720943_a_at) / Fold change /veh RGS16 (11720943_a_at) / RFU RGS16 (11720944_at) / Fold change /veh RGS16 (11720944_at) / RFU, VPS4B / Fold change vs veh, VPS4B / RFU, CREB1 / Fold change vs veh, CREB1 / RFU, DNAJC13 / Fold change vs veh, DNAJC13 / RFU, GNAQ / Fold change vs veh, GNAQ / RFU, CDK5R1 / Fold change vs veh, CDK5R1 / RFU, ZRANB3 / Fold change vs veh, ZRANB3 / RFU, CUL4A / Fold change vs veh, CUL4A / RFU, CCNY / Fold change vs veh, CCNY / RFU, UFL1 / Fold change vs veh, UFL1 / RFU, COG3 / Fold change vs veh, COG3 / RFU, DIAPH2 / Fold change vs veh, DIAPH2 / RFU, SKA2 / Fold change vs veh, SKA2 / RFU, AFF3 / Fold change vs veh, AFF3 / RFU, LMF1 / Fold change vs veh, LMF1 / RFU, IPO11 / Fold change vs veh, IPO11 / RFU, DFFB / Fold change vs veh, DFFB / RFU, FOXP1 / Fold change vs veh, FOXP1 / RFU, CARD8 / Fold change vs veh, CARD8 / RFU, STRN3 / Fold change vs veh, STRN3 / RFU, ADK / Fold change vs veh, ADK / RFU, RASSF2 / Fold change vs veh, RASSF2 / RFU, WIPF1 / Fold change vs veh, WIPF1 / RFU, LARP1B / Fold change vs veh, LARP1B / RFU, RASA1 / Fold change vs veh, RASA1 / RFU, RB1 / Fold change vs veh, RB1 / RFU, PPFIA1 / Fold change vs veh, PPFIA1 / RFU, MAT2A / Fold change vs veh, MAT2A / RFU, CCT5 / Fold change vs veh, CCT5 / RFU, WDR92 / Fold change vs veh, WDR92 / RFU, CUX1 / Fold change vs veh, CUX1 / RFU, TTC7A / Fold change vs veh, TTC7A / RFU, TMEM135 / Fold change vs veh, TMEM135 / RFU, DEPTOR / Fold change vs veh, DEPTOR / RFU, CPM / Fold change vs veh, CPM / RFU, DNAJB6 / Fold change vs veh, DNAJB6 / RFU, CACNA2D3 / Fold change vs veh, CACNA2D3 / RFU, DTX4 / Fold change vs veh, DTX4 / RFU, TFCP2 / Fold change vs veh, TFCP2 / RFU, GMCL1 /// GMCL1P1 / Fold change vs veh, GMCL1 /// GMCL1P1 / RFU, AEBP2 / Fold change vs veh, AEBP2 / RFU, SNHG1 /// SNORD22 /// SNORD25 /// SNORD26 /// SNORD27 /// SNORD28 /// SNORD29 /// SNORD31 / Fold change vs veh, SNHG1 /// SNORD22 /// SNORD25 /// SNORD26 /// SNORD27 /// SNORD28 /// SNORD29 /// SNORD31 / Fold change (Aza/veh), C12orf56 (ProbeSet 11735607_a_at) / Fold change (ACY-1035/veh), C12orf56 (ProbeSet 11735607_a_at) / Fold change (Aza/veh), FGFR1OP (ProbeSet 11751329_s_at) / Fold change (ACY-1035/veh), FGFR1OP (ProbeSet 11751329_s_at) / Fold change (Aza/veh), VPS36 (ProbeSet 11739960_a_at) / Fold change (ACY-1035/veh), VPS36 (ProbeSet 11739960_a_at) / RFU SYPL1 (11715823_x_at) / Fold change /veh SYPL1 (11715823_x_at) / RFU IGFBP7 (11715501_s_at) / Fold change /veh IGFBP7 (11715501_s_at) / RFU REEP3 (11722064_at) / Fold change /veh REEP3 (11722064_at) / RFU IGLL1 (11728026_x_at) / Fold change /veh IGLL1 (11728026_x_at): dose or concentration left out as unconfirmed
Settings: ProbeSet 11755070_a_at; LIST D

Nc1ccc(-c2cccs2)cc1NC(=O)c1ccc2c(c1)cc(C1CC1)n2CCN1CCOCC1 [ACY-1035]
Fold change vs veh, CARD8: 0.85
